Drawing on the NIST ThermoML archive (doi:10.1021/je050440b), this text covers activity coefficient for 6 compounds.

± gives the expanded uncertainty stated by the source.

A short description of the series: activity coefficient (dimensionless); of the first substance listed, at infinite dilution; xn = mol fraction of the nth substance listed. The settings on record: Liquid, Chromatography, x1 = 0.

As for `OC1CCCCC1` [cyclohexanol] + CCCC[N+](C)(C)C.O=S(=O)([N-]S(=O)(=O)C(F)(F)F)C(F)(F)F, the activity coefficient reads like this: (343.65 K) 3.52 ± 0.24; (354.05 K) 2.89 ± 0.2; (364.45 K) 2.54 ± 0.17; (373.95 K) 2.27 ± 0.15; (385.55 K) 1.95 ± 0.13.
On to `C1=CCCC=C1` [1,3-cyclohexadiene] + CCCC[N+](C)(C)C.O=S(=O)([N-]S(=O)(=O)C(F)(F)F)C(F)(F)F, for which the activity coefficient reads like this: (305.95 K) 3.59 ± 0.24; (322.55 K) 3.37 ± 0.23; (333.25 K) 3.18 ± 0.22; (343.65 K) 3.03 ± 0.21; (354.15 K) 2.91 ± 0.2; (364.55 K) 2.81 ± 0.19.
Consider `CCCCCC` [hexane] + CCCC[N+](C)(C)C.O=S(=O)([N-]S(=O)(=O)C(F)(F)F)C(F)(F)F, for which the activity coefficient (301.85 K) turned out to be 19.4 ± 1.3, the activity coefficient (312.35 K) amounted to 18.1 ± 1.2, the activity coefficient (322.85 K) was 17.6 ± 1.2 and the activity coefficient (333.35 K) is 16.3 ± 1.1.
Turning to `CCC(C)(C)O` [2-methylbutan-2-ol] + CCCC[N+](C)(C)C.O=S(=O)([N-]S(=O)(=O)C(F)(F)F)C(F)(F)F, the activity coefficient was determined as 2.53 ± 0.17 (302.55 K); 2.32 ± 0.16 (312.15 K); 1.94 ± 0.13 (333.25 K); 1.8 ± 0.12 (343.65 K); 1.67 ± 0.11 (354.05 K).
With `CCCCCCCCCC` [decane] + CCCC[N+](C)(C)C.O=S(=O)([N-]S(=O)(=O)C(F)(F)F)C(F)(F)F, the activity coefficient is 97.8 ± 6.7 (302.15 K); 87.5 ± 6 (312.15 K); 77.5 ± 5.3 (322.65 K); 67.2 ± 4.6 (333.25 K); 59.9 ± 4.1 (343.65 K); 53.7 ± 3.7 (354.05 K).
Consider `C=CCCCCCCCCCC` [1-dodecene] + CCCC[N+](C)(C)C.O=S(=O)([N-]S(=O)(=O)C(F)(F)F)C(F)(F)F, for which the activity coefficient by setting is: (333.25 K) 76.8 ± 5.3; (343.75 K) 68.9 ± 4.7; (354.05 K) 61.4 ± 4.2; (364.55 K) 54.6 ± 3.7; (371.95 K) 49 ± 3.4.
